A short description of data set [1]: NOVARTIS: Cytotoxicity against human hepatocellular carcinoma cell line (Huh7). Format: toxicity, cell-based, Huh-7. The conditions noted are these: Huh7 cells (hepatocellular carcinoma cell line).
Data set [2] deals with Plasmodium falciparum. Briefly: NOVARTIS: Inhibition of Plasmodium falciparum 3D7 (drug-susceptible) proliferation in erythrocyte-based infection assay. Format: functional, organism-based. To be noted: Plasmodium falciparum, 3D7.
For data set [3], the system named is Plasmodium falciparum. Briefly: NOVARTIS: Inhibition of Plasmodium falciparum W2 (drug-resistant) proliferation in erythrocyte-based infection assay. It is filed as functional, organism-based. To be noted: Plasmodium falciparum, W2; read-out: EC50.

pEC50: −log10 of the molar value. Where only a bound is given, the exact number is not on record here.

For the compound `OC1(c2ccc3ccccc3c2)c2c(c3ccccc3c3ccccc23)C2=NCCN21` (centres undefined), the half-maximal cytotoxic concentration (CC50) (commonly the concentration that lowers cell viability or growth by half) in data set [1] was greater than 10000 nM. In addition, the negative-log EC50 (pEC50) – broadly, the negative decadic logarithm of the EC50, by convention in mol/L – in data set [2] is 6.60; in data set [3], 6.55.
The matching figures for `C[n+]1c2ccccc2nc2ccc(NC3CCCCC3N)cc21.[O-][Cl+3]([O-])([O-])[O-]` (centres undefined): 4210 nM, 6.59 and 6.92.
Take `COc1cc(NCCCC(C)N)c2ncccc2c1` (centres undefined): the midpoint of cytotoxicity in data set [1], the CC50, lay at 14400 nM. In addition, the pEC50 in data set [2] was 6.67; in data set [3], 6.38.
For `COc1cccc(NC(=O)c2ccc(NCCCN3CCC(C)CC3)c([N+](=O)[O-])c2)c1`, in that order: 18700 nM, 6.53 and 6.28.
Compound `O=C(Nc1cccc(Cl)c1)c1cc2ccccc2cc1O` returned a 50% cytotoxic concentration (CC50) in data set [1] of 7890 nM. For the same compound, the negative-log EC50 (pEC50) in data set [2] was 6.26; in data set [3] it was 6.64.
In turn, `C=C(C[N+](C)(C)C)c1ccc([N+](=O)[O-])cc1` displayed a 50% cytotoxic concentration (CC50) in data set [1] greater than 10000 nM. Also, the negative logarithm of the EC50 (pEC50) in data set [2] is 6.50; in data set [3] it was 6.55.
For `O=C(/C=C/c1ccccc1)Nc1ccccc1C(=O)Nc1ccc(-c2nc3ccc(NC(=O)c4ccccc4NC(=O)/C=C/c4ccccc4)cc3[nH]2)cc1`, in that order: greater than 13300 nM, 6.46 and 6.42.
Consider `OC(CN1CCN(C2c3ccccc3-c3ccccc32)CC1)Cn1c2ccc(Cl)cc2c2cc(Cl)ccc21` (centres undefined), for which, in data set [1], the cytotoxic concentration (CC50) is greater than 10000 nM. The pEC50 was 5.92 in data set [2] and 6.56 in data set [3].
For `Cc1cc(C)c(CSc2ncnc3[nH]cnc23)c(C)c1`, in that order: greater than 10000 nM, less than 5.82 and less than 6.56.
Take `COc1ccc(-n2c(S)nnc2CNc2cccc(C(F)(F)F)c2)cc1`: the CC50 in data set [1] was greater than 100000 nM. In addition, the pEC50 in data set [2] was 5.31; in data set [3], 5.54.
With `CCOC(=O)c1c(NC(=O)C(C)Sc2ncnc3c2oc2ccccc23)sc2c1CCC2` (centres undefined), the CC50 in data set [1] was greater than 100000 nM. Further, the negative logarithm of the EC50 (pEC50) in data set [2] is less than 5.06; in data set [3], 5.54.
The matching figures for `CCN(CC)S(=O)(=O)c1cc(S(=O)(=O)c2ccc(Cl)c(S(=O)(=O)N(CC)CC)c2)ccc1Cl`: greater than 10000 nM, less than 6.03 and less than 6.56.
The matching figures for `O=C(Nc1ccc(Oc2ccc(OC(F)(F)F)cc2)cc1)C1CC1`: greater than 100000 nM, 5.78 and 5.56.
The matching figures for `CCN(CCN1CCN(S(=O)(=O)c2cc(Cl)ccc2Cl)CC1)CC1=CCC2CC1C2(C)C` (centres undefined): greater than 10000 nM, 5.75 and 6.54.
As for `CC(NCCCN(C)C)c1cc(C(C)(C)C)cc2c1CCC2(C)C` (centres undefined), the CC50 in data set [1] worked out at 6220 nM. In addition, the figures for the negative logarithm of the EC50 (pEC50) in data set [2] and in data set [3] were 6.21 and 6.75, respectively.
Consider `COC(CNC(=O)c1c[nH]c2ccc(S(=O)(=O)N3CCN(C)CC3)cc2c1=O)OC`, for which the cytotoxic concentration (CC50) in data set [1] was greater than 100000 nM. The negative-log EC50 (pEC50) in data set [2] is less than 4.90; in data set [3], 5.54.
In the case of `CN(CCCNc1ccnc2cc(Cl)ccc12)C(=O)/C=C/c1ccccc1`, the CC50 in data set [1] was greater than 10000 nM. In addition, the pEC50 in data set [2] was 6.43; in data set [3] it was 6.54.
For `CC(=O)Nc1ccc2c(c1)C(=O)N(C(C(=O)NCC(=O)O)C1CC1)[C@@H](CCC(=O)O)C(=O)N2` (some centres undefined), in that order: greater than 10000 nM, 5.90 and 6.55.
The matching figures for `CCCOC(=O)C1=C(C)NC2=C(C(=O)CCC2)C1c1cc(Br)c(O)c(OCC)c1` (centres undefined): greater than 100000 nM, less than 4.90 and 5.55.
Regarding `Cn1c(SCc2cccc([N+](=O)[O-])c2)nc2c(c1=O)SCC2`, in data set [1], the 50% cytotoxic concentration (CC50) is greater than 100000 nM. Besides, the negative logarithm of the EC50 (pEC50) is 5.48 in data set [2] and 5.55 in data set [3].
For `CCN(CC)c1scc(-c2ccc(Cl)cc2)[s+]1`, in that order: 25400 nM, 6.52 and 6.14.
In data set [1], `CN(CCCNc1ccnc2cc(Cl)ccc12)C(=O)c1ccc(Cl)c([N+](=O)[O-])c1` yielded a half-maximal cytotoxic concentration (CC50) greater than 7920 nM. Also, the negative-log EC50 (pEC50) in data set [2] is 6.86; in data set [3], 6.65.
The matching figures for `O=[N+]([O-])c1ccc(S(=O)(=O)NCCCCNc2ccnc3cc(Cl)ccc23)cc1`: 9670 nM, 6.03 and 6.56.
For `O=C(O)c1c(F)cccc1Cl`, in that order: greater than 100000 nM, less than 5.11 and 5.55.
The matching figures for `COc1ccc2sc(Nc3nc(-c4ccccn4)cs3)nc2c1`: 4400 nM, 6.93 and 6.90.
Compound `CNC(=O)c1nn(C)c2c1CC(NCC1CCCCC1)CC2` (centres undefined) displayed a CC50 in data set [1] greater than 100000 nM. Besides, the negative-log EC50 (pEC50) was less than 4.90 in data set [2] and 5.55 in data set [3].
The matching figures for `CCCC(=O)O[C@]1(C(=O)CCl)[C@@H](C)CC2C3CCC4=CC(=O)C=C[C@]4(C)[C@@]3(F)C(=O)C[C@@]21C` (some centres undefined): greater than 10000 nM, 5.78 and 6.55.
The matching figures for `CCC(C)(C)c1ccc(OCCCC[n+]2cccc(C)c2C)c(C(C)(C)CC)c1`: 15200 nM, 6.31 and 6.37.
For `O=C(C1=C(O)C(=O)N(CCCn2ccnc2)C1c1ccccc1[N+](=O)[O-])c1ccccc1` (centres undefined), the half-maximal cytotoxic concentration (CC50) in data set [1] was greater than 100000 nM. For the same compound, the negative logarithm of the EC50 (pEC50) in data set [2] is less than 4.90; in data set [3], 5.55.
In turn, `CCN1CCN(C(=O)Nc2ccc(Cc3ccc(NC(=O)N4CCN(CC)CC4)cc3)cc2)CC1` registered a CC50 in data set [1] of 62000 nM. The pEC50 in data set [2] was 5.62; in data set [3], 5.76.
In the case of `Nc1cccc(Oc2ccc3c(c2)C(=O)N(c2cccc(C(=O)O)c2)C3=O)c1`, in data set [1], the CC50 was greater than 10000 nM. In addition, the results for the pEC50 in data set [2] and in data set [3] were less than 5.90 and less than 6.56, respectively.
For `c1ccc(-c2nc3cc4ccccc4cc3nc2-c2ccsc2)cc1`, in that order: greater than 100000 nM, 5.46 and 5.55.
The compound `CCN1c2ccccc2N=C2C=CC(N)=CC21` (centres undefined) had a CC50 in data set [1] greater than 10000 nM. Besides, the pEC50 in data set [2] is 7.22; in data set [3] it was 6.56.
For `Cc1ncc(CN2CCC(C(=O)Nc3ccc(-n4cccn4)cc3)CC2)s1`, in that order: greater than 100000 nM, 5.50 and 5.55.
In data set [1], `COC(=O)C1CCCN1S(=O)(=O)c1ccc2ccccc2c1` (centres undefined) yielded a half-maximal cytotoxic concentration (CC50) greater than 100000 nM. Also, the pEC50 was less than 5.31 in data set [2] and 5.55 in data set [3].
For `COc1ccc(OC(C)=O)c(C=NNC(=O)C(C)Oc2ccccc2Br)c1` (centres undefined), in that order: greater than 100000 nM, 5.29 and 5.55.
In data set [1], `CN1CCc2c(sc3nc(SCC(=O)NCCc4ccccc4)n(-c4ccc(Cl)cc4)c(=O)c23)C1` came in with a half-maximal cytotoxic concentration (CC50) of 68500 nM. Further, the pEC50 was 5.88 in data set [2] and 5.72 in data set [3].
In data set [1], `FC(F)(F)COc1nc(N2CCCCC2)nc(N(c2ccccc2)c2ccccc2)n1` came in with a half-maximal cytotoxic concentration (CC50) greater than 100000 nM. Moreover, the pEC50 in data set [2] was less than 5.22; in data set [3], 5.56.
`COc1ccc(CN(Cc2cc3cc(OC)c(OC)cc3[nH]c2=O)C(=S)NCCc2ccc(OC)c(OC)c2)cc1`: in data set [1], the CC50 was 35700 nM. Moreover, the pEC50 in data set [2] is 5.25; in data set [3], 5.98.
`COc1ccc(NC(=O)CCCCCn2c(SCc3cc(=O)oc4cc(O)ccc34)nc3ccsc3c2=O)cc1` registered a CC50 in data set [1] greater than 100000 nM. The negative-log EC50 (pEC50) in data set [2] is 5.24; in data set [3], 5.54.
Compound `COc1ccccc1CNC(=O)c1nn(-c2ccc(Cl)cc2)c(=O)c2ccccc12` had a cytotoxic concentration (CC50) in data set [1] greater than 100000 nM. Also, the results for the negative-log EC50 (pEC50) in data set [2] and in data set [3] were 5.96 and 5.55, respectively.
In the case of `Cn1c(C(OCC(=O)N2CCN(Cc3ccccc3)CC2)c2cccnc2)cc2ccccc21` (centres undefined), half-maximal cytotoxicity in data set [1] (CC50) was put at 38100 nM. Moreover, the negative-log EC50 (pEC50) in data set [2] is 5.65; in data set [3] it was 5.96.
For `CC(C(=O)N1CCN(C(c2ccccc2)c2ccccc2)CC1)N(CCN1CCOCC1)S(=O)(=O)c1ccccn1` (centres undefined), in that order: greater than 10000 nM, less than 6.09 and 6.54.
For `CC(NCCC(c1ccccc1)c1ccccc1O)c1ccccc1` (centres undefined), in that order: greater than 10000 nM, 5.95 and 6.56.
In turn, `COc1ccc(/C=C2/SC(=N)N(c3ccccc3OC)C2=O)cc1` showed a CC50 in data set [1] greater than 10000 nM. The figures for the pEC50 in data set [2] and in data set [3] were 6.46 and 6.54, respectively.
The matching figures for `CN(CCCNc1ccnc2cc(Cl)ccc12)C(=O)COc1ccccc1`: greater than 10000 nM, 7.01 and 6.54.
As to `CCN1/C(=C/c2ccc3ccccc3[n+]2CC)Sc2sc3ccccc3c21`, half-maximal cytotoxicity in data set [1] (CC50) was put at 4770 nM. In addition, the pEC50 in data set [2] is 7.00; in data set [3], 6.87.
For `C=C[C@H]1CN2CC[C@H]1C[C@H]2[C@H](OC(=O)CCC)c1ccnc2ccccc12`, in that order: greater than 10000 nM, 6.47 and 6.54.
On to `COc1ccc(CCN2C(=O)CC(C(=O)Nc3cccc(Cl)c3)SC2=Nc2ccccc2)cc1OC` (centres undefined), for which the 50% cytotoxic concentration (CC50) in data set [1] is greater than 100000 nM. The values for the pEC50 in data set [2] and in data set [3] were 5.42 and 5.55, respectively.
Consider `COc1ccc(C(=O)Oc2ccccc2-c2nc3cc(C)ccn3c2NC(C)(C)CC(C)(C)C)c(OC)c1`, for which, in data set [1], the CC50 is greater than 10000 nM. For the same compound, the results for the negative-log EC50 (pEC50) in data set [2] and in data set [3] were 5.79 and 6.55, respectively.
Compound `CC(C)c1ccc(NC(=O)c2ccc(NCCCN3CCN(c4cccc(Cl)c4)CC3)c([N+](=O)[O-])c2)cc1` yielded a CC50 in data set [1] greater than 100000 nM. The negative logarithm of the EC50 (pEC50) was 5.79 in data set [2] and 5.55 in data set [3].
For `CCOc1ccc2nc(NCCNC(=O)c3ccco3)c(C)cc2c1`, in that order: greater than 10000 nM, less than 5.90 and less than 6.55.
In data set [1], `CCCCN(C(=O)c1ccccc1C)c1nc(-c2cc(OC)ccc2OC)cs1` showed a CC50 greater than 100000 nM. For the same compound, the pEC50 in data set [2] is 5.76; in data set [3], 5.54.

Source of the values: ChEMBL document CHEMBL1156829 (Proc Natl Acad Sci U S A, 2008).
